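Method: 48-hour compound exposure of cells in 96-well plates, five concentrations, linear interpolation of endpoints. The concentration for full growth arrest is given as TGI.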
Assays:
Assay in all cases: NCI anticancer screen, dose series, 48 h
[1] = test system: DMS 114 small cell lung
[2] = test system: LOX IMVI melanoma
[3] = test system: LXFL 529 NSCLC
[4] = test system: DMS 273 small cell lung
[5] = test system: CAKI-1 renal
[6] = test system: 786-0 renal
[7] = test system: HCC-2998 colon
[8] = test system: SN12C renal
[9] = test system: EKVX NSCLC
[10] = test system: TK-10 renal
[11] = test system: KM20L2 colon
[12] = test system: CCRF-CEM leukemia
[13] = test system: M19-MEL melanoma
[14] = test system: XF 498 CNS
[15] = test system: DLD-1 colon
[16] = test system: T-47D breast
[17] = test system: MDA-MB-435
[18] = test system: MCF7 breast
[19] = test system: HOP-18 NSCLC

Compound	TGI [1]	TGI [2]	TGI [3]	TGI [4]	TGI [5]	TGI [6]	TGI [7]	TGI [8]	TGI [9]	TGI [10]	TGI [11]	TGI [12]	TGI [13]	TGI [14]	TGI [15]	TGI [16]	TGI [17]	TGI [18]	TGI [19]
O=C1c2ccccc2OP(=O)(OCC(F)(F)F)OC1(C(F)(F)F)C(F)(F)F (configuration not stated)	> 100 µM	> 100 µM	> 100 µM	> 100 µM	> 100 µM	> 100 µM	> 100 µM	> 100 µM	> 100 µM	> 100 µM	> 100 µM	> 100 µM	> 100 µM	> 100 µM	–	–	–	–	–
C=CCC(N(C)C(=O)[C@H](Cc1ccccc1)NC(=O)OCc1ccccc1)P(=O)(Oc1ccccc1)Oc1ccccc1 (some centres not stated)	> 100 µM	> 100 µM	> 100 µM	> 100 µM	–	> 100 µM	> 100 µM	> 100 µM	> 100 µM	> 100 µM	> 100 µM	> 100 µM	> 100 µM	> 100 µM	> 100 µM	–	–	–	–
CCOC(=O)/C=C/n1c2ccccc2c(=O)c2ccccc21	> 100 µM	> 100 µM	> 100 µM	> 100 µM	> 100 µM	> 100 µM	> 100 µM	> 100 µM	> 100 µM	> 100 µM	> 100 µM	> 100 µM	> 100 µM	> 100 µM	> 100 µM	–	–	–	–
C[C@@H](c1ccccc1)N1CN(C(=O)OCc2ccccc2)C(C)(C)CC1=O	–	> 100 µM	–	–	> 100 µM	> 100 µM	> 100 µM	> 100 µM	> 100 µM	> 100 µM	–	> 100 µM	–	–	–	> 100 µM	> 100 µM	> 100 µM	–
O=S(=O)(O)C(=Nc1cccc(Cc2ccccc2)c1)Nc1cccc(Cc2ccccc2)c1	–	26.6 µM	–	–	> 100 µM	29 µM	35.5 µM	37.2 µM	30.9 µM	35.6 µM	–	98 µM	–	–	–	32.1 µM	40.6 µM	37.9 µM	–
CC(C)(C)OC(=O)N1CCC(C(=O)O)CC1	–	> 100 µM	–	–	> 100 µM	> 100 µM	> 100 µM	> 100 µM	> 100 µM	> 100 µM	–	> 100 µM	–	–	–	> 100 µM	> 100 µM	> 100 µM	–
COc1cc2c(cc1OC)C(=O)/C(=C/c1ccc(Cl)cc1)CC2	–	> 10 µM	–	–	> 10 µM	> 10 µM	> 10 µM	> 10 µM	> 10 µM	> 10 µM	–	> 10 µM	–	–	–	> 10 µM	> 10 µM	> 10 µM	–
COc1cc(-c2cc(-c3ccccc3)nc(-c3c(OC)ccc4c(C)cc(=O)oc34)c2)cc(OC)c1OC	–	> 100 µM	–	–	> 100 µM	> 100 µM	> 100 µM	> 100 µM	> 100 µM	> 100 µM	–	> 100 µM	–	–	–	> 100 µM	> 100 µM	> 100 µM	–
COC(=O)c1sc(=S)sc1SCc1ccc(CSc2sc(=S)sc2C(=O)OC)cc1	–	> 100 µM	–	–	> 100 µM	> 100 µM	> 100 µM	> 100 µM	> 100 µM	> 100 µM	–	> 100 µM	–	–	–	> 100 µM	> 100 µM	> 100 µM	–
CCCCCCC(=O)O[C@H]1CC[C@H]2[C@@H]3CCC4C/C(=N/NC(=O)c5cccc6c(=O)c7ccccc7[nH]c56)C=C(C)[C@]4(C)[C@H]3CC[C@]12C (some centres not stated)	–	> 25 µM	–	–	> 25 µM	> 25 µM	> 25 µM	> 25 µM	> 25 µM	> 25 µM	–	> 25 µM	–	–	–	> 25 µM	> 25 µM	> 25 µM	–
NC(=O)c1cc2ccc(O)cc2oc1=Nc1ccccc1	–	> 100 µM	–	–	> 100 µM	> 100 µM	78.8 µM	66 µM	> 100 µM	> 100 µM	–	> 100 µM	–	–	–	66.1 µM	> 100 µM	> 100 µM	–
CC(C)OCC1CC(CC(=O)Nc2nncs2)C(=O)O1 (configuration not stated)	–	> 100 µM	–	–	> 100 µM	> 100 µM	> 100 µM	> 100 µM	> 100 µM	> 100 µM	–	> 100 µM	–	–	–	> 100 µM	> 100 µM	> 100 µM	–
O=c1c2nc3ccccc3c(=O)n2ncn1-c1ccccc1Cl	–	> 100 µM	–	–	> 100 µM	> 100 µM	> 100 µM	> 100 µM	> 100 µM	> 100 µM	–	> 100 µM	–	–	–	> 100 µM	> 100 µM	> 100 µM	–
COc1ccc(-n2cnc3c2NC(C)(C)N=C3C(N)=O)c(OC)c1	–	> 100 µM	–	–	> 100 µM	> 100 µM	> 100 µM	> 100 µM	> 100 µM	> 100 µM	–	> 100 µM	–	–	–	> 100 µM	> 100 µM	> 100 µM	–
CCN(CC)/C(Sc1ccccc1)=C(\C(Cl)=C(Cl)Cl)[N+](=O)[O-]	–	25.8 µM	–	–	29.2 µM	37.5 µM	34.3 µM	37.8 µM	34.7 µM	31.3 µM	–	20.9 µM	–	–	–	42 µM	27.7 µM	30.2 µM	–
CC(C)CC(NC(=O)OC(C)(C)C)C(=O)Nc1ccc(Nc2nc(F)nc(-c3c4ccccc4c4n3CCS4)n2)cc1 (configuration not stated)	37.5 µM	–	35.2 µM	30.6 µM	33.1 µM	34.8 µM	35 µM	43.5 µM	37.8 µM	57.5 µM	32.3 µM	16.9 µM	–	42.3 µM	36.8 µM	–	–	–	50.6 µM
Cn1c2ccc3cc2c(=S)c2cc(ccc21)OCCOCCOCCOCCOCCO3	–	> 10 µM	–	–	> 10 µM	> 10 µM	> 10 µM	> 10 µM	> 10 µM	> 10 µM	–	> 10 µM	–	–	–	> 10 µM	> 10 µM	> 10 µM	–

Compound	TGI [1]	TGI [2]	TGI [3]	TGI [4]	TGI [5]	TGI [6]	TGI [7]	TGI [8]	TGI [9]	TGI [10]	TGI [11]	TGI [12]	TGI [13]	TGI [14]	TGI [15]	TGI [16]	TGI [17]	TGI [18]	TGI [19]
C[C@H](NC(=O)c1ccc(CNC(=O)/C=C/c2cccc(Oc3ccccc3)c2)cc1)c1ccccc1	–	> 100 µM	–	–	59.5 µM	> 100 µM	> 100 µM	> 100 µM	> 100 µM	> 100 µM	–	> 100 µM	–	–	–	> 100 µM	> 100 µM	> 100 µM	–
C=CCC1(OC(C)=O)C2OC(=O)C1(O)OCC2O (configuration not stated)	–	> 100 µM	–	–	> 100 µM	> 100 µM	> 100 µM	> 100 µM	> 100 µM	> 100 µM	–	> 100 µM	–	–	–	> 100 µM	> 100 µM	> 100 µM	–
CCCCc1ccc(Nc2nc(SC)c3[nH]cnc3n2)cc1	–	> 100 µM	–	–	> 100 µM	> 100 µM	> 100 µM	> 100 µM	> 100 µM	> 100 µM	–	12.3 µM	–	–	–	> 100 µM	> 100 µM	> 100 µM	–
Cc1nn(C(=O)c2ccc(Cl)cc2)c2c1C(c1ccccc1[N+](=O)[O-])SC(N)=N2 (configuration not stated)	–	> 10 µM	–	–	> 10 µM	> 10 µM	> 10 µM	> 10 µM	> 10 µM	> 10 µM	–	> 10 µM	–	–	–	> 10 µM	> 10 µM	> 10 µM	–
COC(=O)CNS(=O)(=O)c1ccc(-c2c3nc(c(-c4ccc(S(=O)(=O)NCC(=O)OC)cc4)c4ccc([nH]4)c(-c4ccc(S(=O)(=O)NCC(=O)OC)cc4)c4nc(c(-c5ccc(S(=O)(=O)NCC(=O)OC)cc5)c5ccc2[nH]5)C=C4)C=C3)cc1	–	> 100 µM	–	–	> 100 µM	> 100 µM	> 100 µM	> 100 µM	> 100 µM	> 100 µM	–	> 100 µM	–	–	–	> 100 µM	> 100 µM	> 100 µM	–
CCC12CCCN(Cc3ccccc3)C1c1c(n(C)c3ccccc13)C(C(=O)OC)C2 (configuration not stated)	> 239 µM	> 239 µM	> 239 µM	> 239 µM	> 239 µM	> 239 µM	> 239 µM	> 239 µM	> 239 µM	> 239 µM	> 239 µM	> 239 µM	> 239 µM	118 µM	> 239 µM	–	–	–	–
Cc1cc2c(cc1Cl)S(=O)(=O)OC(c1ccc([N+](=O)[O-])cc1)=N2	–	> 100 µM	–	–	> 100 µM	> 100 µM	> 100 µM	> 100 µM	> 100 µM	> 100 µM	–	> 100 µM	–	–	–	> 100 µM	> 100 µM	> 100 µM	–
Nc1nc(SCc2ccc([N+](=O)[O-])cc2)nc2c1ncn2C1OC(CO)C(O)C1O (configuration not stated)	> 100 µM	> 100 µM	> 100 µM	> 100 µM	–	> 100 µM	> 100 µM	> 100 µM	> 100 µM	> 100 µM	> 100 µM	> 100 µM	> 100 µM	> 100 µM	> 100 µM	–	–	–	–
O=c1ccn([C@@H]2C[C@@H]2CO)c(=O)[nH]1	–	> 100 µM	–	–	> 100 µM	> 100 µM	> 100 µM	> 100 µM	> 100 µM	> 100 µM	–	> 100 µM	–	–	–	> 100 µM	> 100 µM	> 100 µM	–
CC(C)=CCC/C(=C/CC/C(=C\CCc1ccoc1)C(=O)O)C(=O)O	–	> 100 µM	–	–	> 100 µM	> 100 µM	> 100 µM	> 100 µM	> 100 µM	> 100 µM	–	> 100 µM	–	–	–	> 100 µM	> 100 µM	> 100 µM	–
COC(=O)CC1NC(=O)[C@@H]1C(C)O (some centres not stated)	> 100 µM	> 100 µM	> 100 µM	> 100 µM	–	> 100 µM	> 100 µM	> 100 µM	> 100 µM	> 100 µM	> 100 µM	> 100 µM	> 100 µM	> 100 µM	–	–	–	–	–
Clc1cc(Cl)cc(C=NC23CC4CC(CC(C4)C2)C3)c1	–	> 10 µM	–	–	> 10 µM	> 10 µM	> 10 µM	> 10 µM	> 10 µM	> 10 µM	–	> 10 µM	–	–	–	> 10 µM	> 10 µM	> 10 µM	–
CCn1c(SCC(=O)NNC(=S)Nc2ccc([N+](=O)[O-])cc2)nc2ccccc2c1=O	–	> 100 µM	–	–	> 100 µM	> 100 µM	> 100 µM	> 100 µM	> 100 µM	> 100 µM	–	> 100 µM	–	–	–	> 100 µM	> 100 µM	> 100 µM	–
COc1cc2c(cc1OCCCCN1C(=O)c3cccc4cccc(c34)C1=O)N=C[C@@H]1CCCN1C2=O	–	> 100 µM	–	–	10.1 µM	9.73 µM	20.5 µM	17.7 µM	44.6 µM	6.91 µM	–	5.08 µM	–	–	–	37.1 µM	> 35.6 µM	22.4 µM	–
Cc1nn(C(=O)Cc2ccccc2)c2c1C(c1ccc(O)cc1O)SC(N)=N2 (configuration not stated)	–	> 100 µM	–	–	> 100 µM	> 100 µM	> 100 µM	> 100 µM	> 100 µM	> 100 µM	–	> 100 µM	–	–	–	> 100 µM	> 100 µM	> 100 µM	–
CN(C)C(=S)/N=c1\ssc(=S)n1Cc1ccccc1	0.456 µM	> 63.1 µM	> 100 µM	–	> 56.2 µM	15.9 µM	> 27.7 µM	> 63.1 µM	57.6 µM	47.1 µM	0.388 µM	49.6 µM	> 100 µM	–	> 55.1 µM	> 31.6 µM	0.269 µM	> 46.4 µM	> 100 µM
Brc1cc(CCOC2CCCCO2)c(-c2sccc2CCOC2CCCCO2)s1 (configuration not stated)	–	> 71.2 µM	–	–	> 100 µM	> 100 µM	> 100 µM	> 100 µM	> 100 µM	> 100 µM	–	> 82.5 µM	–	–	–	> 100 µM	> 100 µM	> 80 µM	–
